The results in this text go back to ChEMBL document CHEMBL6096683, “Novel Orthosteric/Allosteric Ligands of Cannabinoid Receptors: An Unexpected Pharmacological Profile” (J Med Chem, 2025).

Calls of active or inactive are those of the source. The calls are words filed in the database; no cut-off is given here.

The subject of assay [1] is BEND3. Briefly: Disruption of monolayer integrity in mouse BEND3 cells assessed as change in TEER modulation at 135 mins. The assay is classed as functional, cell-based.
The subject of assay [2] is BEND3. Briefly: Disruption of monolayer integrity in mouse BEND3 cells assessed as change in TEER modulation at 180 mins. The assay is classed as functional, cell-based.
Assay [3] concerns the target T1, Cannabinoid receptor 1 (Homo sapiens, UniProt P21554). Briefly: Displacement of [3H]CP55940 from human CB1 receptor expressed in CHO cell membrane incubated for 2 hrs. Format: cell membranes.
Assay [4] concerns the target T1, Cannabinoid receptor 1. Briefly: Displacement of [3H]CP55940 from human CB1 receptor expressed in CHO cell membrane at 0.001 to 10 uM incubated for 2 hrs relative to control. The assay is classed as cell membranes. The note with it: dose 0.001-10 µM.
Assay [5] addresses T2, Cannabinoid receptor 2 (Homo sapiens, UniProt P34972). Briefly: Displacement of [3H]CP55940 from human CB2 receptor expressed in CHO cell membrane at 0.001 to 10 uM incubated for 2 hrs relative to control. Conditions: dose 0.001-10 µM. The assay is classed as cell membranes.
Assay [6] concerns the target T2, Cannabinoid receptor 2. Briefly: Agonist activity at human CB2 receptor expressed in CHO cells assessed as inhibition of forskolin-induced cAMP production at 10 uM incubated for 90 mins by HitHunter assay. Format: functional, cell-based. The note with it: filed as agonist.
Assay [7] addresses T1, Cannabinoid receptor 1. Briefly: Agonist activity at human CB1 receptor expressed in CHO cells assessed as inhibition of forskolin-induced cAMP production at 100 nM incubated for 90 mins in presence of CP55940 ligand by HitHunter assay relative to control. Format: functional, cell-based.
Assay [8] has as its target T1, Cannabinoid receptor 1. Briefly: Agonist activity at human CB1 receptor expressed in CHO cells assessed as inhibition of forskolin-induced cAMP production incubated for 90 mins in presence of CP55940 ligand by HitHunter assay. The assay is classed as functional, cell-based.
For assay [9], the target named is T1, Cannabinoid receptor 1. Briefly: Agonist activity at human CB1 receptor expressed in CHO cells assessed as inhibition of forskolin-induced cAMP production incubated for 90 mins in presence of FM6b ligand by HitHunter assay. Format: functional, cell-based.
Assay [10] concerns the target T1, Cannabinoid receptor 1. Briefly: Agonist activity at human CB1 receptor expressed in CHO cells assessed as inhibition of forskolin-induced cAMP production at 100 nM incubated for 90 mins in presence of FM6b ligand by HitHunter assay relative to control. Conditions: filed as agonist. The assay is classed as functional, cell-based.
Assay [11] concerns the target T1, Cannabinoid receptor 1. Briefly: Agonist activity at human CB1 receptor expressed in CHO cells assessed as inhibition of forskolin-induced cAMP production incubated for 90 mins in presence of GAT211 ligand by HitHunter assay. Format: functional, cell-based.
For assay [12], the target named is T1, Cannabinoid receptor 1. Briefly: Agonist activity at human CB1 receptor expressed in CHO cells assessed as inhibition of forskolin-induced cAMP production at 100 nM incubated for 90 mins in presence of GAT211 ligand by HitHunter assay relative to control. The assay is classed as functional, cell-based.
Assay [13] addresses T2, Cannabinoid receptor 2. Briefly: Displacement of [3H]CP55940 from human CB2 receptor expressed in CHO cell membrane incubated for 2 hrs. The assay is classed as cell membranes. The note with it: read-out: pIC50 (converted).
Assay [14] deals with T1, Cannabinoid receptor 1. Briefly: Agonist activity at human CB1 receptor expressed in CHO cells assessed as inhibition of forskolin-induced cAMP production at 1 nM incubated for 90 mins in presence of CP55940 ligand by HitHunter assay relative to control. The assay is classed as functional, cell-based. The note with it: filed as agonist.
For assay [15], the system named is HepG2. Briefly: Cytotoxicity against human HepG2 cells at 0.1 to 100 uM incubated for 24 hrs by MTT assay. The note with it: dose 0.1-100 µM. The assay is classed as functional, cell-based.
Assay [16] has as its system HepG2. Briefly: Induction of lipid accumulation in human HepG2 cells at 0.1 to 25 uM incubated for 24 hrs by Oil Red O staining based analysis. Format: functional, cell-based. Conditions: dose 0.1-25 µM.
Assay [17] concerns HepG2. Briefly: Induction of lipid accumulation in human HepG2 cells assessed as increase in lipolysis at 0.1 to 25 uM incubated for 24 hrs by Oil Red O staining based analysis. Format: functional, cell-based. Conditions: dose 0.1-25 µM.
Assay [18] relates to HepG2. Briefly: Anti-steatosis activity against oleate/palmitate-induced human HepG2 cells assessed as reduction of lipid accumulation incubated for 24 hrs. Format: functional, cell-based. Conditions: dose 0.1-25 µM.
Assay [19] has as its system HepG2. Briefly: Anti-steatosis activity against oleate/palmitate-induced human HepG2 cells assessed as induction of lipolysis at 0.1 to 25 uM incubated for 24 hrs. The assay is classed as functional, cell-based. The note with it: dose 0.1-25 µM.
Assay [20] can be described thus: Cytotoxicity against mouse BEND3 cells assessed as cell viability at 30 uM incubated for 24 hrs by WST-1 assay. Format: functional. The note with it: read-out: Activity.
In assay [21] the test system is BEND3. Briefly: Disruption of monolayer integrity in mouse BEND3 cells assessed as change in TEER modulation after 3 hrs. The assay is classed as functional, cell-based.
The target of assay [22] is T1, Cannabinoid receptor 1. Briefly: Displacement of [3H]CP55940 from human CB1 receptor expressed in CHO cells at 0.001 to 10 uM. The note with it: filed as positive allosteric modulator, dose 0.001-10 µM. Format: cell-based.
Assay [23] has as its target T2, Cannabinoid receptor 2. Briefly: Displacement of [3H]CP55940 from human CB2 receptor expressed in CHO cells at 10 uM. Conditions: filed as positive allosteric modulator. Format: cell-based.
Assay [24] concerns the target T2, Cannabinoid receptor 2. Briefly: Displacement of [3H]CP55940 from human CB2 receptor expressed in CHO cells upto 1 uM. Format: cell-based.
Assay [25] deals with T2, Cannabinoid receptor 2. Briefly: Agonist activity at human CB2 receptor expressed in CHO cells assessed as inhibition of forskolin-induced cAMP production at 0.001 to 10 uM incubated for 90 mins by HitHunter assay. Conditions: dose 0.001-10 µM. Format: functional, cell-based.
Assay [26] addresses T1, Cannabinoid receptor 1. Briefly: Positive allosteric modulation at human CB1 receptor expressed in CHO cells assessed as inhibition of forskolin-induced cAMP production incubated for 90 mins by HitHunter assay. The assay is classed as functional, cell-based. Conditions: filed as positive allosteric modulator.
In assay [27] the target is T1, Cannabinoid receptor 1. Briefly: Positive allosteric modulation at human CB1 receptor expressed in CHO cells assessed as inhibition of forskolin-induced cAMP production incubated for 90 mins in presence of FM6b by HitHunter assay relative to control. Conditions: filed as positive allosteric modulator. The assay is classed as functional, cell-based.
Assay [28] concerns the target T2, Cannabinoid receptor 2. Briefly: Positive allosteric modulation at human CB2 receptor expressed in CHO cells assessed as inhibition of forskolin-induced cAMP production incubated for 90 mins in presence of FM6b by HitHunter assay. The assay is classed as functional, cell-based.
In assay [29] the target is T2, Cannabinoid receptor 2. Briefly: Positive allosteric modulation at human CB2 receptor expressed in CHO cells assessed as inhibition of forskolin-induced cAMP production incubated for 90 mins in presence of FM6b by HitHunter assay relative to control. The assay is classed as functional, cell-based. The note with it: filed as positive allosteric modulator.
Assay [30] has as its target T2, Cannabinoid receptor 2. Briefly: Positive allosteric modulation at human CB2 receptor expressed in CHO cells assessed as inhibition of forskolin-induced cAMP production incubated for 90 mins in presence of CP55940 ligand by HitHunter assay. The assay is classed as functional, cell-based.
Assay [31] deals with T2, Cannabinoid receptor 2. Briefly: Positive allosteric modulation at human CB2 receptor expressed in CHO cells assessed as inhibition of forskolin-induced cAMP production incubated for 90 mins in presence of CP55940 ligand by HitHunter assay relative to control. The assay is classed as functional, cell-based. The note with it: filed as positive allosteric modulator.
Assay [32] has as its system HepG2. Briefly: Anti-steatosis activity against oleate/palmitate-induced human HepG2 cells assessed as induction of lipolysis at 25 uM incubated for 24 hrs. The assay is classed as functional, cell-based.

T1 sequence (P21554 whole entry): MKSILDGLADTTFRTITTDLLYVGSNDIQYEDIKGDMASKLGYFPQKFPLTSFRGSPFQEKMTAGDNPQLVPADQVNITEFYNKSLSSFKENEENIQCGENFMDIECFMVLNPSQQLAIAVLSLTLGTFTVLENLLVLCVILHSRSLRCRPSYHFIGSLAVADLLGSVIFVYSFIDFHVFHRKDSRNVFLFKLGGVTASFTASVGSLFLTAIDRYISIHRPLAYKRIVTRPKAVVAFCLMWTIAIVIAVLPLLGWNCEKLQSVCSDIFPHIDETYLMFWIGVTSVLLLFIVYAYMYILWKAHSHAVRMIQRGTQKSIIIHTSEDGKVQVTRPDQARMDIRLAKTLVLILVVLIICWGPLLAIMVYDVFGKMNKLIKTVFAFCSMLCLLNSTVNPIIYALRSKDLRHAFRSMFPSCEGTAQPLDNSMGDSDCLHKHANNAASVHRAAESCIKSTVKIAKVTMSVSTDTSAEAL
T2 sequence (P34972 whole entry): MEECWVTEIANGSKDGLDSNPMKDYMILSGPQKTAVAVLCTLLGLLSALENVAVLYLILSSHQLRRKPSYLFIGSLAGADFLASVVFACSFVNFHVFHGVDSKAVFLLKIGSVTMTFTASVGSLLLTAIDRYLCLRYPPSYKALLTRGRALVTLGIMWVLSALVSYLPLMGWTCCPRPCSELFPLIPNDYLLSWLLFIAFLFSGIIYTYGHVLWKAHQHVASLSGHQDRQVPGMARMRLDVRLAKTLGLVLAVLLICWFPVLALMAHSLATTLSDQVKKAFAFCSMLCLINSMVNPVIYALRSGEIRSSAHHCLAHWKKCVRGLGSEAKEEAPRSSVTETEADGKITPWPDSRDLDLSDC

For `O=C1OC2(c3ccc(O)cc3Oc3cc(O)ccc32)c2ccccc21`, the result with BEND3 [1] and in the assay with BEND3 [2] was Active.
The compound `Cc1c(Br)cc(C(=O)NC2CCCCCC2)c(=O)n1CCCCCn1cc(CCC(=O)NCC(c2ccccc2)c2c(-c3ccccc3)[nH]c3ccccc23)nn1` (stereo unspecified) had an IC50 at Cannabinoid receptor 1 [3] of 20 nM. For the same compound, the Emax on Cannabinoid receptor 1 [4] (filed as agonist) came out at 42%; on Cannabinoid receptor 2 [5] (filed as agonist) it was 80%; at Cannabinoid receptor 1 [7] (filed as agonist), 58%; on Cannabinoid receptor 1 [10], 120%; on Cannabinoid receptor 1 [12], 1.3%. Also, at Cannabinoid receptor 2 [6], the result was Active. Also, the figures for the EC50 at Cannabinoid receptor 1 [8], on Cannabinoid receptor 1 [9] and on Cannabinoid receptor 1 [11] were 20 nM, 2000 nM and 63.1 nM, respectively.
As for `Cc1c(Br)cc(C(=O)NC2CCCCCC2)c(=O)n1CCCn1cc(CCCCC(=O)NCC(c2ccccc2)c2c(-c3ccccc3)[nH]c3ccccc23)nn1` (stereo unspecified), the IC50 on Cannabinoid receptor 1 [3] was 0.631 nM. For the same compound, the Emax on Cannabinoid receptor 1 [4] (filed as agonist) was 60%; on Cannabinoid receptor 2 [5] (filed as agonist), 97%; on Cannabinoid receptor 1 [7], 31%; at Cannabinoid receptor 1 [10] it was 67%; on Cannabinoid receptor 1 [12], 3.32%. Besides, the outcome on Cannabinoid receptor 2 [6] was Active. The figures for the EC50 at Cannabinoid receptor 1 [8] and at Cannabinoid receptor 1 [9] were 25.1 nM and 63.1 nM, respectively.
With `Cc1c(Br)cc(C(=O)NC2CCCCCC2)c(=O)n1CCCCCn1cc(CCCCC(=O)NCC(c2ccccc2)c2c(-c3ccccc3)[nH]c3ccccc23)nn1` (stereo unspecified), the figures for the IC50 at Cannabinoid receptor 1 [3] and at Cannabinoid receptor 2 [13] were 126 nM and 1000 nM, respectively. In addition, the Emax at Cannabinoid receptor 1 [4] came out at 31%; at Cannabinoid receptor 2 [5] (filed as agonist), 201%; at Cannabinoid receptor 1 [14], 98%; at Cannabinoid receptor 1 [10] it was 83%; on Cannabinoid receptor 1 [12], 35%. In addition, the outcome at Cannabinoid receptor 2 [6], in the assay with HepG2 [15], in the assay on HepG2 [16], with HepG2 [17], in the assay on HepG2 [19] and in the assay with BEND3 [21] was Active. For the same compound, the outcome with BEND3 [1] and with BEND3 [2] was Active. Further, the figures for the EC50 at Cannabinoid receptor 1 [8], on Cannabinoid receptor 1 [9] and on Cannabinoid receptor 1 [11] were 1580 nM, 6.31 nM and 126 nM, respectively. In addition, in the assay with HepG2 [18], the Activity result was “Dose-dependent-effect”. Further, the viability at 30 µM in [20] is above 75%.
As to `O=[N+]([O-])CC(c1ccccc1)c1c(-c2ccccc2)[nH]c2ccccc12` (stereo unspecified), the outcome on Cannabinoid receptor 1 [22], on Cannabinoid receptor 2 [23] and at Cannabinoid receptor 1 [26] was Active. Also, the outcome at Cannabinoid receptor 2 [24], in the assay with HepG2 [17] and with HepG2 [32] was inactive. Further, the Emax at Cannabinoid receptor 1 [4] (filed as positive allosteric modulator) is 140%; at Cannabinoid receptor 2 [5], 29%; on Cannabinoid receptor 1 [27], 85%; on Cannabinoid receptor 2 [29], 98%; at Cannabinoid receptor 2 [31], 105%. For the same compound, the IC50 at Cannabinoid receptor 2 [13] was above 10000 nM. In addition, the Activity entry at Cannabinoid receptor 2 [25] is “No effect”. The figures for the EC50 at Cannabinoid receptor 2 [28] and on Cannabinoid receptor 2 [30] were 170 nM and 0.06 nM, respectively.
